According to patent US12390437B2, “Itaconic acid derivatives and uses thereof intreating an inflammatory disease or a disease associated with an undesirable immune response” (Sitryx Therapeutics Limited, priority 2019, dated 2025):

Experiments:
[1] = tested on: IL-1β cytokine output from THP-1s; test: THP-1 AlphaLISA IL-1β cytokine assay; assay type: cell-based, human; conditions: Homo sapiens, THP-1, PMA-differentiated THP-1 cells, LPS 24 hr then Nigericin 1 hour; read-out: IL-1β (IC50)
Summary of the method: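 AlphaLISA read-out of cytokine released into supernatants of differentiated THP-1 cells. Cells were PMA-treated for 72 h, exposed to compound for 30 min, stimulated with LPS for 24 h, then given nigericin for 1 h before harvest. IC50 values come from normalised concentration-response curves.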

[2] = tested on: IL-6 cytokine output from THP-1s; test: THP-1 AlphaLISA IL-6 cytokine assay; assay type: cell-based, human; conditions: Homo sapiens; PMA-differentiated THP-1 cells, LPS 24 hr then Nigericin 1 hour
Method: Measuring Inhibitory Effects on IL-1β and IL-6 Cytokine Output from THP-1s
The cytokine inhibition profiles of compounds of formula (IW-1) were determined in a differentiated THP-1 cell assay. All assays were performed in RPMI-1640 growth medium (Gibco), supplemented with 10% fetal bovine serum (FBS; Gibco), 1% penicillin-streptomycin and 1% sodium pyruvate unless specified otherwise. The IL-1β and IL-6 cytokine inhibition assays were each run in a background of differentiated THP-1 cells as described below. All reagents described were from Sigma-Aldrich unless specified otherwise. Compounds were prepared as 10 mM DMSO stocks.
THP-1 cells were expanded as a suspension up to 80% confluence in appropriate growth medium. Cells were harvested, suspended, and treated with an appropriate concentration of phorbol 12-myristate 13-acetate (PMA) over a 72 hr period (37° C./5% CO2).
Following 72 hrs of THP-1 cell incubation, cellular medium was removed and replaced with fresh growth media containing 1% of FBS. Working concentrations of compounds were prepared separately in 10% FBS treated growth medium and pre-incubated with the cells for 30 minutes (37° C./5% CO2). Following the 30 minute compound pre-incubation, THP-1s were treated with an appropriate concentration of LPS and the THP-1s were subsequently incubated for a 24 hr period (37° C./5% CO2). An appropriate final concentration of Nigericin was then dispensed into the THP-1 plates and incubated for 1 hour (37° C./5% CO2) before THP-1 supernatants were harvested and collected in separate polypropylene 96-well holding plates.
Reagents from each of the IL-1β and IL-6 commercial kits (Perkin Elmer) were prepared and run according to the manufacturer's instructions. Subsequently, fluorescence signal detection in a microplate reader was measured (EnVision® Multilabel Reader, Perkin Elmer).
Percentage inhibition was calculated per cytokine by normalising the sample data to the high and low controls used within each plate (+/−LPS respectively). Percentage inhibition was then plotted against compound concentration and the 50% inhibitory concentration (IC50) was determined from the resultant concentration-response curve.

NRF2 = NRF2 +/-GSH activation assay (DiscoverX PathHunter NRF2 translocation kit, U2OS cells); assay type: cell-based; conditions: Homo sapiens, GSH condition not stated in Table 5; for Emax: U2OS, normalised to dimethyl fumarate 'High' control, read-out: NRF2 activation Emax; for EC50: U2OS PathHunter cells, 6 hours, read-out: NRF2 activation EC50
Method: Measuring Compound Activation Effects on the Anti-Inflammatory Transcription Factor NRF2 in DiscoverX PathHunter NRF2 Translocation Kit
Potency and efficacy of compounds of formula (IW-1) against the target of interest to activate NRF2 (nuclear factor erythroid 2-related factor 2) were determined using the PathHunter NRF2 translocation kit (DiscoverX). The NRF2 translocation assay was run using an engineered recombinant cell line, utilising enzyme fragment complementation to determine activation of the Keap1-NRF2 protein complex and subsequent translocation of NRF2 into the nucleus. Enzyme activity was quantified using a chemiluminescent substrate consumed following the formation of a functional enzyme upon PK-tagged NRF2 translocation into the nucleus.
The assay was run under either +/−GSH (glutathione) conditions to determine the attenuating activities of GSH against target compounds.
Additionally, a defined concentration of dimethyl fumarate was used as the ‘High’ control to normalise test compound activation responses to.
U2OS PathHunter eXpress cells were thawed from frozen prior to plating. Following plating, U2OS cells were incubated for 24 hrs (37° C./5% CO2) in commercial kit provided cell medium.
Following 24 hrs of U2OS incubation, cells were directly treated with an appropriate final concentration of compound, for −GSH conditions, or for +GSH conditions, an intermediate plate containing 6× working concentrations of compound stocks was prepared in a 6 mM working concentration of GSH solution (solubilised in sterile PBS). Following a 30 minute compound-GSH pre-incubation (37° C./5% CO2) for +GSH treatment, plated U2OS cells were incubated with an appropriate final concentration of compound and GSH.
Following compound (+/−GSH) treatment, the U2OS plates were incubated for a further 6 hours (37° C./5% CO2) before detection reagent from the PathHunter NRF2 commercial kit was prepared and added to test plates according to the manufacturer's instructions. Subsequently, the luminescence signal detection in a microplate reader was measured (PHERAstar®, BMG Labtech).
Percentage activation was calculated by normalising the sample data to the high and low controls used within each plate (+/−DMF). Percentage activation/response was then plotted against compound concentration and the 50% activation concentration (EC50) was determined from the plotted concentration-response curve.

[3] = Mouse pharmacokinetic study, intravenous dosing; assay type: in vivo; conditions: male, C57BL/6, mouse, iv, plasma, 10 mg/kg i.v., read-out: Parent compound concentration following intravenous administration
Method: Pharmacokinetic studies were carried out in 6-8-week-old male C57BL/6 mice having free access to food and water. Intravenous dosing was conducted at 10 mg/kg (5 mL/kg; vehicle: 10% DMSO-90% (25% HP-13-CD in water)) via tail vein injection, with sampling at 3 min, 8 min, 15 min, 30 min, 1, 2, 4, 6 and 8 hours, i.e., 9 time points in total (N=3/time point), using semi-serial bleeding for plasma. Oral compound administration, via gavage, was carried out at 100 mg/kg (10 mL/kg; vehicle: 5% DMSO-95% (0.5% HPMC+0.1% Tween 80 in water)), with sampling at 5 min, 15 min, 30 min, 1, 2, 4, 6, 8 and 24 hours, i.e., 9 time points in total (N=3/time point), using semi-serial bleeding for plasma.
For both intravenous and oral routes, the mice were restrained manually at the designated time points, with ca. 110 μL of blood being taken into K2EDTA tubes via the facial vein. Blood samples were put on ice and centrifuged to obtain plasma samples from which the concentration at each time point was measured by LC-MS/MS.

| SMILES | IC50 [1] | IC50 [2] | Emax (NRF2) | EC50 (NRF2) | also measured |
| --- | --- | --- | --- | --- | --- |
| C=C(CC(=O)OCCCCCCCC)C(=O)OC1CN(C(C)=O)C1 [Example 50, 1-(1-acetylazetidin-3-yl) 4-octyl 2-methylenesuccinate] | 2.7 µM | 1.7 µM | 225% | 3.2 µM |  |
| C=C(CC(=O)OC1CCCCCCC1)C(=O)OC1CS(=O)(=O)C1 [Example 54, 4-cyclooctyl 1-(1,1-dioxidothietan-3-yl) 2-methylenesuccinate] | 3.9 µM | 1.5 µM | 105% | 2.8 µM |  |
| C=C(CC(=O)OC1CCCCCCC1)C(=O)OC1CCN(S(C)(=O)=O)CC1 [Example 69, 4-cyclooctyl 1-(1-(methylsulfonyl)piperidin-4-yl) 2-methylenesuccinate] | 1.7 µM | 2.2 µM | 111% | 14.7 µM |  |
| C=C(CC(=O)OCc1ccc(F)cc1)C(=O)OCCC(=O)O [Example 81, 3-((4-((4-fluorobenzyl)oxy)-2-methylene-4-oxobutanoyl)oxy)propanoic acid] | 100 µM | 52.1 µM | 110% | 24.9 µM |  |
| C=C(CC(=O)OCCCCCC)C(=O)OCCC(=O)O [Example 85, 3-((4-(hexyloxy)-2-methylene-4-oxobutanoyl)oxy)propanoic acid] | 22.6 µM | 18.6 µM | 163% | 25 µM |  |
| C=C(CC(=O)OCC(C)(C)C)C(=O)OCC(=O)O [Example 92, 2-((2-methylene-4-(neopentyloxy)-4-oxobutanoyl)oxy)acetic acid] | 75.3 µM | 21.2 µM | 109% | 37.8 µM |  |
| C=C(CC(=O)OCc1ccc(F)cc1)C(=O)OCC(=O)O [Example 93, 2-((4-((4-fluorobenzyl)oxy)-2-methylene-4-oxobutanoyl)oxy)acetic acid] | 73.8 µM | 28.1 µM | 118% | 36 µM |  |
| C=C(CC(=O)OCCCCCCCC)C(=O)OCC(=O)N(C)CC(=O)O [Example 98, 2-(N-methyl-2-((2-methylene-4-(octyloxy)-4-oxobutanoyl)oxy)acetamido)acetic acid] | 2.1 µM | 4.3 µM | 193% | 14.7 µM |  |
| C=C(CC(=O)OCCCCCCCC)C(=O)OCC(=O)N1CCC[C@H]1C(=O)O [Example 99, (2-((2-methylene-4-(octyloxy)-4-oxobutanoyl)oxy)acetyl)-L-proline] | 1.9 µM | 2.5 µM | 227% | 37.6 µM |  |
| C=C(CC(=O)OCCCCCCCC)C(=O)OC(C)C(=O)N(C)CC(=O)O (stereo not shown) [Example 100, N-methyl-N-(2-((2-methylene-4-(octyloxy)-4-oxobutanoyl)oxy)propanoyl)glycine] | 11 µM | 5.1 µM | 195% | 48.7 µM |  |
| C=C(CC(=O)OCCCCCCCC)C(=O)OC(C)C(=O)N1CCC[C@H]1C(=O)O (stereo partly drawn) [Example 101, (2-((2-methylene-4-(octyloxy)-4-oxobutanoyl)oxy)propanoyl)-L-proline] | 15.2 µM | 4.7 µM | 186% | 37.9 µM |  |
| C=C(CC(=O)OCCCCCCCC)C(=O)OC(C)C(=O)NCC(=O)O (stereo not shown) [Example 102, (2-((2-methylene-4-(octyloxy)-4-oxobutanoyl)oxy)propanoyl)glycine] | 1.5 µM | 1.1 µM | 191% | 6.5 µM |  |
| C=C(CC(=O)OCCCCCC)C(=O)OCC(=O)NS(=O)(=O)N(C)C [Example 118, 1-(2-((N,N-dimethylsulfamoyl)amino)-2-oxoethyl) 4-hexyl 2-methylenesuccinate] | 16.2 µM | 14 µM |  |  | concentration at 0.05 h ([3]; time 0.05 h): 3050 ng/mL; concentration at 0.133 h ([3]; time 0.133 h): 161 ng/mL; concentration at 0.25 h ([3]; time 0.25 h): 8 ng/mL; concentration at 0.5 h ([3]; time 0.5 h): 2.4 ng/mL; concentration at 1 h ([3]; time 1 h): < 0.8 ng/mL; concentration at 2 h ([3]; time 2 h): < 0.8 ng/mL; concentration at 4 h ([3]; time 4 h): < 0.8 ng/mL; concentration at 6 h ([3]; time 6 h): < 0.8 ng/mL; concentration at 8 h ([3]; time 8 h): < 0.8 ng/mL |
| C=C(CC(=O)OCCCCCC)C(=O)OCCC(=O)NS(C)(=O)=O [Example 120] | 26.9 µM | 7.7 µM |  |  |  |
| C=C(C(=O)OCCS(C)(=O)=O)C(C)C(=O)OCCCCCCCC (stereo not shown) [Example 138, 4-(2-(methylsulfonyl)ethyl) 1-octyl 2-methyl-3-methylenesuccinate] | 6.8 µM | 5.2 µM |  |  |  |
| C=C(C(=O)O[C@H]1CCOC1)C(C)C(=O)OCCCCCCCC (stereo partly drawn) [Example 139, 1-octyl 4-((S)-tetrahydrofuran-3-yl) 2-methyl-3-methylenesuccinate] | 21.7 µM | 15.1 µM |  |  |  |
| C=C(CC(=O)OCCCCCCCC)C(=O)OC1CC(F)(F)C1 [Example 185, 1-(3,3-difluorocyclobutyl) 4-octyl 2-methylenesuccinate] | 21.6 µM | 8.8 µM |  |  |  |
